Measured values published in patent publication US10457707B2, “Substituted urea depsipeptide analogs as activators of the CLPP endopeptidase” (priority 2015, dated 2019).
≈ marks a conversion by molar mass, not a printed value. Where two headings read alike, the source gives them in different places. *1 amine or outer side, *2 acyl side, *3 side chain or, on linkers, in order; H or OH if unused. Where a SMILES comes first, the peptide text is derived from it. Bridges are numbered along the chain shown (N, C = ends). [ ]: non-standard residue; d: D form. The star is where a group is joined. ξ: configuration not given here. Phe(3,5-F2) = N[C@@H](Cc1cc(F)cc(F)c1)C(=O)O; NH(4-OCF3-phenyl) = FC(F)(F)Oc1ccc(N*)cc1; ξPro(4S-Me) = C[C@@H]1CNC(C(=O)O)C1; Heptenoyl(2E) = CCCC/C=C/C(=O)*; NH(4-Me-phenyl) = Cc1ccc(N*)cc1; aThr = C[C@H](O)[C@H](N)C(=O)O; X5 = O=C(C1COCCN1[*:1])[*:2]; Pip = O=C(O)[C@@H]1CCCCN1; NMeA = CN[C@@H](C)C(=O)O; CO = O=C([*:1])[*:2]; ξP = O=C(O)C1CCCN1

Experiments:
Type in all cases: cell-based
[1] = system: Streptococcus pyogenes, ATCC 700294; assay: Minimal inhibitory concentration assay (microbroth dilution)
Summary of the method: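 CLSI broth microdilution: two-fold serial compound dilutions in appropriate broth, inoculated and incubated aerobically overnight at 37° C. MIC read visually as lowest concentration preventing bacterial growth.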

[2] = system: Streptococcus pneumoniae, R6; assay: Minimal inhibitory concentration assay; conditions: read-out: Minimal Inhibitory Concentrations S. pneumoniae R6
Procedure: It is understood, that in various aspects, the MIC is determined by a microbroth dilution method. […] In a still further aspect, the MIC is determined by a microbroth dilution method using Staphylococcus aureus, NRS70. […] In an even further aspect, the MIC is determined by a microbroth dilution method using Streptococcus pneumoniae, DAW27. […] In an even further aspect, the MIC is determined using Staphylococcus aureus, USA 300. In a still further aspect, the MIC is determined using Streptococcus pneumoniae, R6. In a further aspect, the MIC is determined using Staphylococcus aureus, USA 300 and compared to the MIC determined using Staphylococcus aureus, USA 300 wherein ClpP is inactivated, thus allowing confirmation that killing is via a ClpP-dependent pathway.
Two fold serial dilutions of test compound in 100 μL of the appropriate broth media were first prepared in 96-well round bottom microtiter plates (Nalgene Nunc International, Rochester, N.Y., USA). […] The plates were then incubated aerobically at 37° C. All strains were incubated overnight. After incubations, in all cases the MIC was recorded as the lowest concentration of drug that prevented bacterial growth. The bacterial strains for which MIC was determined as described in Table 4.

[3] = system: Staphylococcus aureus, USA 300; assay: Minimal inhibitory concentration assay; conditions: USA300, read-out: Minimal Inhibitory Concentrations S. aureus USA 300
Summary of the method: (§1)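 Antibacterial activity was measured by CLSI-standard microdilution in broth, using overnight aerobic incubation at 37 °C. Growth inhibition was scored visually, and MIC taken as the lowest concentration preventing growth.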

[4] = system: Staphylococcus aureus, USA 300 wherein ClpP is inactivated; assay: Minimal inhibitory concentration assay
Summary of the method: as §1

[5] = system: Staphylococcus aureus, ATCC 29213; assay: Minimal inhibitory concentration assay (microbroth dilution); conditions: ATCC29213, read-out: Minimal Inhibitory Concentrations S. aureus ATCC 29213
Summary of the method: as §1

[6] = system: Staphylococcus aureus, NRS70; assay: as above
Summary of the method: as §1

[7] = system: Bacillus subtilis, ATCC 23857; assay: as above
Summary of the method: as §1

[8] = system: Vero (kidney epithelial cells; ATCC CCL-81); assay: Cytotoxicity assay (CellTiter-Glo cell viability, 72 hours)
Summary of the method: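 Vero cells, 5000/well, grown overnight at 37° C, 5% CO2 in DMEM with 10% FBS, then exposed to serial compound dilutions or DMSO for 72 hours. Viability read by CellTiter-Glo luminescence. IC50 from duplicate wells, reported as range over two independent experiments.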

[9] = system: Enterococcus faecalis, ATCC 33186; assay: Minimal inhibitory concentration assay (microbroth dilution); conditions: Enterococcus faecalis, ATCC33186; read-out: Minimal Inhibitory Concentrations E. faecalis ATCC 33186
Summary of the method: as §1

[10] = Streptococcus pyogenes, ATCC700294; read-out: Minimal Inhibitory Concentrations S. pyogenes ATCC 700294
[11] = Staphylococcus aureus, NRS70; read-out: Minimal Inhibitory Concentrations S. aureus NRS70
[12] = Bacillus subtilis, ATCC23857; read-out: Minimal Inhibitory Concentrations B. subtilis ATCC 23857
[13] = Streptococcus pyogenes, ATCC700294, read-out: Minimal Inhibitory Concentrations S. pyogenes ATCC 700294
[14] = Staphylococcus aureus, NRS70, read-out: Minimal Inhibitory Concentrations S. aureus NRS70
[15] = Vero cells, 72 hours, growth inhibition, read-out: Cytotoxicity IC50
[16] = Bacillus subtilis, ATCC23857, read-out: Minimal Inhibitory Concentrations B. subtilis ATCC 23857

Structure (SMILES) | MIC [1, 10] | MIC [2] | MIC [3] | Minimal Inhibitory Concentrations S. aureus USA 300 ΔClpP [4] | MIC [5] | MIC [6, 11] | MIC [7, 12] | IC50 ([8]; African green monkey, 72 h) | MIC [1, 13] | MIC [6, 14] | IC50 [8, 15] | MIC [7, 16] | MIC [9]
C[C@H]1CC2C(=O)O[C@@H](C)[C@H](NC(=O)[C@H](Cc3cc(F)cc(F)c3)NC(=O)Nc3ccc(OC(F)(F)F)cc3)C(=O)N3CCCC3C(=O)N3CCOCC3C(=O)N[C@@H](C)C(=O)N2C1 (stereo partly drawn) [Compound 34, (S)-3-(3,5-difluorophenyl)-2-(3-(4-(trifluoromethoxy)phenyl)ureido)-N-((6aS,12S,13S,15aS,17S,21S,23aS)-13,17,21-trimethyl-6,11,15,20,23-pentaoxooctadecahydro-6H,11H,15H-[1,4]oxazino[3,4-i]dipyrrolo[2,1-c:2′,1′-l][1]oxa[4,7,10,13]tetraazacyclohexadecin-12-yl)propanamide] ({NH(4-OCF3-phenyl)-CO}-[Phe(3,5-F2)][aThr][ξP][X5]A[ξPro(4S-Me)]; ester 2-C) | 0.1 µM (≈ 0.088 µg/mL) | 0.049 µM (≈ 0.0431 µg/mL) | 0.05 µM (≈ 0.044 µg/mL) | 50 µM | 0.05 µM (≈ 0.044 µg/mL) | 0.02 µM (≈ 0.0176 µg/mL) | 0.02 µM (≈ 0.0176 µg/mL) | 26 ± 2.6 µM | – | – | – | – | –
Cc1ccc(NC(=O)N[C@@H](Cc2cc(F)cc(F)c2)C(=O)N[C@H]2COC(=O)C3C[C@H](C)CN3C(=O)[C@H](C)NC(=O)C3CCCCN3C(=O)C3CCCN3C2=O)cc1 (stereo partly drawn) [Compound 45, (S)-3-(3,5-difluorophenyl)-N-((2S,6S,8aS,14aS,20S,23aS)-2,6-dimethyl-5,8,14,19,23-pentaoxooctadecahydro-1H,5H,14H,19H-pyrido[2,1-i]dipyrrolo[2,1-c:2′,1′-l][1]oxa[4,7,10,13]tetraazacyclohexadecin-20-yl)-2-(3-(p-tolyl)ureido)propanamide] | – | 0.1 µM (≈ 0.0794 µg/mL) | 0.4 µM (≈ 0.318 µg/mL) | 100 µM | 0.4 µM (≈ 0.318 µg/mL) | – | – | – | 0.4 µM (≈ 0.318 µg/mL) | 0.2 to 0.4 µM (≈ 0.159 to 0.318 µg/mL) | 56.8 ± 6.7 µM | – | –
Cc1ccc(NC(=O)N[C@@H](Cc2cc(F)cc(F)c2)C(=O)N[C@@H]2C(=O)N3CCCC3C(=O)N(C)[C@@H](C)C(=O)N[C@@H](C)C(=O)N3C[C@@H](C)CC3C(=O)O[C@H]2C)cc1 (stereo partly drawn) [Compound 26, (2S)-3-(3,5-difluorophenyl)-N-((2S,6S,9S,11aS,17S,18S)-2,6,9,10,18-pentamethyl-5,8,11,16,20-pentaoxohexadecahydro-1H,5H,16H-dipyrrolo[2,1-c:2′,1′-l][1]oxa[4,7,10,13]tetraazacyclohexadecin-17-yl)-2-(3-(p-tolyl)ureido)propanamide] ({NH(4-Me-phenyl)-CO}-[Phe(3,5-F2)][aThr][ξP][NMeA]A[ξPro(4S-Me)]; ester 2-C) | – | 0.125 µM (≈ 0.0977 µg/mL) | 0.39 µM (≈ 0.305 µg/mL) | 200 µM | 0.2 µM (≈ 0.156 µg/mL) | – | – | – | 0.5 µM (≈ 0.391 µg/mL) | 0.2 µM (≈ 0.156 µg/mL) | 40.5 ± 3.8 µM | 0.03 µM (≈ 0.0235 µg/mL) | –
CCCC/C=C/C(=O)N[C@@H](Cc1cc(F)cc(F)c1)C(=O)N[C@@H]1C(=O)N2CCC[C@H]2C(=O)N2CCCC[C@H]2C(=O)N[C@@H](C)C(=O)N2CCC[C@H]2C(=O)O[C@H]1C [ADEP 2719, reference compound] ({Heptenoyl(2E)}-[Phe(3,5-F2)][aThr]P[Pip]AP; ester 2-C) | < 0.2 µM | – | < 0.19 µM | 500 µM | 0.07 µM (≈ 0.054 µg/mL) | 0.08 µM (≈ 0.0617 µg/mL) | < 0.01 µM | – | – | – | 37.7 ± 3.4 µM | – | 0.08 µM (≈ 0.0617 µg/mL)
Cc1ccc(NC(=O)N[C@@H](Cc2cc(F)cc(F)c2)C(=O)N[C@H]2COC(=O)[C@@H]3C[C@@H](C)CN3C(=O)[C@H](C)NC(=O)[C@@H]3CCCCN3C(=O)[C@@H]3CCCN3C2=O)cc1 [Compound 24, (S)-3-(3,5-difluorophenyl)-N-((2R,6S,8aS,14aS,20S,23aS)-2,6-dimethyl-5,8,14,19,23-pentaoxooctadecahydro-1H,5H,14H,19H-pyrido[2,1-i]dipyrrolo[2,1-c:2′,1′-l][1]oxa[4,7,10,13]tetraazacyclohexadecin-20-yl)-2-(3-(p-tolyl)ureido)propanamide] | – | – | – | – | 0.5 µM (≈ 0.397 µg/mL) | – | – | – | 0.5 µM (≈ 0.397 µg/mL) | 0.5 µM (≈ 0.397 µg/mL) | 93.8 ± 4.8 µM | 2.2 µM (≈ 1.75 µg/mL) | –
